Reference: patent publication US9253980B2 (priority 2011, dated 2016)

System: Puccinia recondita
Experiment: Control of brown rust on wheat caused by Puccinia recondita (greenhouse, comparative)
Format: in vivo
Settings: 500 ppm spray to run-off one day before inoculation; % diseased leaf area, visually assessed; untreated control 90
Experimental: The spray solutions were prepared in several steps:
The stock solution were prepared: a mixture of acetone and/or dimethylsulfoxide and the wetting agent/emulsifier Wettol, which is based on ethoxylated alkylphenoles, in a relation (volume) solvent-emulsifier of 99 to 1 was added to 25 mg of the compound to give a total of 5 ml. Water was then added to total volume of 100 ml.
This stock solution was diluted with the described solvent-emulsifier-water mixture to the given concentration.
The first two developed leaves of pot-grown wheat seedling were sprayed to run-off with an aqueous suspension, containing 500 ppm of active ingredient as described below. The next day the plants were inoculated with spores of Puccinia recondita. To ensure the success the artificial inoculation, the plants were transferred to a humid chamber without light and a relative humidity of 95 to 99% and 20 to 24° C. for 24 h. Then the trial plants were cultivated for 6 days in a greenhouse chamber at 20-24° C. and a relative humidity between 65 and 70%. The extent of fungal attack on the leaves was visually assessed as % diseased leaf area.

Structure (SMILES) | Disease level (%)
Cn1c(=O)c2sc3c(=O)n(C)c(=O)c3sc2c1=O | 80
COn1c(=O)c2sc3c(=O)n(OC)c(=O)c3sc2c1=O [I-2, 2.6-Dimethoxy-1H.5H-[1.4]dithiino[2,3-c:5.6-c′]dipyrrol-1.3.5.7(2H.6H)tetrone] | 45
